Measurements taken from US20250296938A1, “Compounds that Interact with the Ras Superfamily for the Treatment of Cancers, Inflammatory Diseases, Rasopathies, and Fibrotic Disease” (SHY Therapeutics, LLC, priority 2018, published 2025).
pIC50: −log10 of the molar value.

Assays:
[1] = system: AKT phosphorylation; test: Western AKT cell-based phosphorylation assay, PANC-1; settings: Homo sapiens, 6 hours, EGF stimulation, PANC-1
Outline: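 PANC-1 cells, serum-starved overnight in 0.5% FBS, were treated with compound at 10 μM (0.3% DMSO) for 6 h at 37 °C and then stimulated with 1.5 ng/ml EGF for 15 min. Lysates (15–50 μg) were immunoblotted for phospho-Akt Ser473, with ECL detection.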

[2] = system: MAPK phosphorylation; test: Western MAPK cell-based phosphorylation assay, NCI H1299; settings: Homo sapiens; for inhibition at 10 µM: 6 hours, EGF stimulation
Experimental: (§1) Cell lines: Human NSCLC cells NCI-H1975 and NCI-H1299, and tumor-derived pancreatic cancer cell lines Panc-1, MIA-PaCa-2, and BxPC3, were all purchased from American Type Culture Collection and grown in complete RPMI medium (BxPC3, NCI-H1975 and NCI-H1299) or DMEM-High Glucose (Panc1 and MIA-PaCa-2), supplemented with penicillin (100 U/mL), streptomycin (100 μg/mL), and 10% heat-inactivated FBS at 37° C. in a humidified incubator with 5% CO2.
(§2) Method: Cells were plated at 350000 cells/well density in a 12-well plate, allowed 3 hours to adhere to the plate, then starved in the appropriate medium in the presence of 0.5% FBS overnight. The small molecules to be tested were added to the cells in the final concentration of 10 μM in the presence of 0.3% DMSO for 6 hours incubation at 37° C. For IC50 value determination, serial dilutions of compounds were added to cells under the same conditions. Next, cells were stimulated with 1.5 ng/ml EGF for 15 minutes then cells were lysed with lysis buffer containing 1% Triton X-100, EDTA, and Halt™ Protease & Phosphatase Inhibitor Cocktail (Thermo Scientific). Protein concentration was assessed by BCA protein assay (Thermo Scientific). Phosphorylation level of MAPK was determined by western blot.
(§3) Western blot protocol: Equal amounts of protein (15-50 μg) were separated by SDS-PAGE and transferred to nitrocellulose membranes (Invitrogen by Thermo Fisher Scientific). The membrane was stained with Ponceau S Stain (Boston BioProducts) to verify uniform protein loading. Membranes were blocked with 10% milk and phosphorylation levels of MAPK were assessed by incubating overnight at 4° C. with anti-phospho-p44/42 (Thr202/Tyr204) antibody (Cell Signaling) followed by HRP-conjugated secondary antibody (Jackson Immunoresearch, West Grove, PA). Bands were incubated in Amersham ECL Prime Western Blotting Detection Reagent (GE Healthcare) and visualized using the ChemiDoc MP imaging system (Bio-Rad).

[3] = system: MAPK phosphorylation; test: Western MAPK cell-based phosphorylation assay, MIA PaCa-2; settings: Homo sapiens; for inhibition at 10 µM: 6 hours, EGF stimulation
Experimental: as §1, §2, §3

[4] = system: MAPK phosphorylation; test: MAPK cell-based phosphorylation assay (ELISA or Western), PANC-1; settings: Homo sapiens, PANC-1; for inhibition at 10 µM: 6 hours, EGF stimulation
Outline: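 Serum-starved (0.5% FBS overnight) cells given compound at 10 μM or serial dilutions (0.3% DMSO) for 6 h at 37 °C, then 1.5 ng/mL EGF for 15 min. Phospho-MAPK read by fixed-cell ELISA (fluorescence, 595 nm) or by Western blot of lysates with anti-phospho-p44/42 (Thr202/Tyr204).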

[5] = system: MAPK phosphorylation; test: Western MAPK cell-based phosphorylation assay, BxPC3; settings: Homo sapiens; for inhibition at 10 µM: BXPC-3, 10 μM, 6 hours, EGF stimulation
Experimental: as §1, §2, §3

[6] = system: MAPK phosphorylation; test: Western MAPK cell-based phosphorylation assay, NCI H1975; settings: Homo sapiens; for inhibition at 10 µM: 6 hours, EGF stimulation
Experimental: as §1, §2, §3

[7] = system: MIA PaCa-2 pancreatic cancer cell line; test: Cell proliferation assay (DAPI); type: cell-based; settings: Homo sapiens, MIA PaCa-2; for inhibition at 10 µM: 2-4 days, read-out: % Inhibition of cell proliferation, MIA PaCa-2 % inh
Outline: (§4)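 NCI-H1975 cells in RPMI; PANC-1 and MIA PaCa-2 in DMEM-high glucose; BxPC3 in RPMI; all with 10% FBS. Compounds at 10 µM final (or serial dilutions for IC50), 0.3% DMSO, 2–4 days at 37 °C. Fixed, DAPI-stained, fluorescence read at 358/461 nm to give proliferation inhibition.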

[8] = system: PANC-1 pancreatic cancer cell line; test: Cell proliferation assay (DAPI); type: cell-based; settings: Homo sapiens
Outline: as §4

[9] = system: BxPC3 pancreatic cancer cell line; test: Cell proliferation assay (DAPI); type: cell-based; settings: Homo sapiens, BXPC-3
Outline: as §4

[10] = system: NCI H1975 non-small-cell lung cancer cell line; test: Cell proliferation assay (DAPI); type: cell-based; settings: Homo sapiens
Outline: as §4

[11] = system: NCI H1299 non-small-cell lung cancer cell line; test: Cell proliferation assay (DAPI); type: cell-based; settings: Homo sapiens

Compound	inhibition at 10 µM [1]	inhibition at 10 µM [2]	inhibition at 10 µM [3]	inhibition at 10 µM [4]	inhibition at 10 µM [5]	pIC50 [7]	inhibition at 10 µM [7]	other results
CO[C@H]1CCC(Nc2nc(-c3nccn3C)nc3sc(-c4ccn(C)n4)c(-c4ccccc4)c23)C1 (some centres unmarked) [drawing 406]	76 to 100%	76 to 100%	76 to 100%	76 to 100%	76 to 100%			inhibition at 10 µM [6]: 76 to 100%
CO[C@@H]1CCC(Nc2nc(-c3nccn3C)nc3sc(-c4ccn(C)n4)c(-c4ccccc4)c23)C1 (some centres unmarked) [drawing 407]	0%	26 to 50%	0%	76 to 100%	0%			inhibition at 10 µM [6]: 26 to 50%
COCC1CCN(c2nc(-c3nccn3C)nc3sc(-c4ccn(C)n4)c(-c4ccccc4)c23)C1 (centres unmarked) [drawing 408]	0%	26 to 50%		76 to 100%				
COCC(C)Nc1nc(-c2nccn2C)nc2sc(-c3ccccc3Cl)c(-c3cscn3)c12 (centres unmarked) [drawing 414]	0%		76 to 100%	76 to 100%	26 to 50%			
COCC(C)Nc1nc(-c2nccn2C)nc2sc(-c3cccc(OC)c3)c(-c3cscn3)c12 (centres unmarked) [drawing 416]	0%		26 to 50%	76 to 100%	76 to 100%			
COCCNc1nc(-c2nccn2C)nc2sc(-c3ccccc3Cl)c(-c3ccc(OC)cc3)c12 [drawing 418]	0%	0%	76 to 100%	76 to 100%	0%			inhibition at 10 µM [6]: 0%
COCCNc1nc(-c2nccn2C)nc2sc(-c3cccc(OC)c3)c(-c3ccc(OC)cc3)c12 [drawing 419]	0%	0%	76 to 100%	76 to 100%	0%			inhibition at 10 µM [6]: 76 to 100%
COCCNc1nc(-c2nccn2C)nc2sc(-c3cccc(OC)c3Cl)c(-c3ccc(OC)cc3)c12 [drawing 420]	26 to 50%	0%	76 to 100%	76 to 100%	1 to 25%			inhibition at 10 µM [6]: 76 to 100%
COCCNc1nc(-c2nccn2C)nc2sc(-c3cc(OC)ccc3Cl)c(-c3ccc(OC)cc3)c12 [drawing 421]	0%		0%	51 to 75%	0%			
COCCNc1nc(-c2cn(C)cn2)nc2sc(-c3ccccc3Cl)c(-c3ccc(OC)cc3)c12 [drawing 422]	0%	0%	76 to 100%	76 to 100%	26 to 50%			inhibition at 10 µM [6]: 76 to 100%
COCCNc1nc(-c2nccn2C)nc2sc(-c3cccc(OC)c3Cl)c(-c3ccccc3)c12 [drawing 425]	76 to 100%	76 to 100%	76 to 100%	76 to 100%	76 to 100%			inhibition at 10 µM [6]: 76 to 100%
COCCNc1nc(-c2nccn2C)nc2sc(-c3cc(OC)ccc3Cl)c(-c3ccccc3)c12 [drawing 426]			76 to 100%	51 to 75%	26 to 50%			
COCCNc1nc(-c2nccn2C)nc2sc(-c3cccc(OC)c3Cl)c(-c3ccccc3)c12 [drawing 472]								pIC50 [2]: < 6.00; pIC50 [3]: 6.00 to 6.12; pIC50 [4]: 6.00 to 6.12; pIC50 ([5]; BXPC-3): < 6.00; pIC50 [6]: < 6.00
CO[C@H]1CCC(Nc2nc(-c3nccn3C)nc3sc(-c4ccn(C)n4)c(-c4ccccc4)c23)C1 (some centres unmarked) [drawing 474]								pIC50 [3]: < 6.00; pIC50 [4]: 6.00 to 6.12; pIC50 [6]: < 6.00
COCCCNc1nc(-c2nccn2C)nc2sc(-c3ccn(C)n3)c(-c3ccccc3)c12 [drawing 542]						< 6.00	76 to 100%	pIC50 [8]: 6.00 to 6.12; pIC50 [9]: 6.00 to 6.12
COCC(C)Nc1nc(-c2nccn2C)nc2sc(-c3ccn(C)n3)c(-c3ccccc3)c12 (centres unmarked) [drawing 544]						< 6.00	76 to 100%	pIC50 [8]: 6.00 to 6.12; pIC50 [9]: 6.00 to 6.12
COC1CCN(c2nc(-c3nccn3C)nc3sc(-c4ccn(C)n4)c(-c4ccccc4)c23)C1 (centres unmarked) [drawing 545]						< 6.00	76 to 100%	pIC50 [8]: 6.00 to 6.12; pIC50 [9]: < 6.00
Cn1ccc(-c2sc3nc(-c4nccn4C)nc(NCC4CCOC4)c3c2-c2ccccc2)n1 (centres unmarked) [drawing 547]						< 6.00	76 to 100%	pIC50 [8]: < 6.00; pIC50 [9]: < 6.00
COCC(C)Nc1nc(-c2nccn2C)nc2sc(-c3ccccc3Cl)c(-c3cscn3)c12 (centres unmarked) [drawing 556]							76 to 100%	pIC50 [10]: < 6.00; pIC50 [11]: < 6.00
COCC(C)Nc1nc(-c2nccn2C)nc2sc(-c3cccc(OC)c3)c(-c3cscn3)c12 (centres unmarked) [drawing 558]							76 to 100%	pIC50 [10]: < 6.00; pIC50 [8]: 6.00 to 6.12; pIC50 [11]: < 6.00
COCCNc1nc(-c2nccn2C)nc2sc(-c3ccccc3Cl)c(-c3ccc(OC)cc3)c12 [drawing 560]						< 6.00	76 to 100%	pIC50 [10]: 6.00 to 6.12
COCCNc1nc(-c2nccn2C)nc2sc(-c3cccc(OC)c3)c(-c3ccc(OC)cc3)c12 [drawing 561]						< 6.00	76 to 100%	pIC50 [10]: < 6.00
COCCNc1nc(-c2cn(C)cn2)nc2sc(-c3ccccc3Cl)c(-c3ccc(OC)cc3)c12 [drawing 564]						< 6.00	76 to 100%	pIC50 [10]: < 6.00
COCCNc1nc(-c2nccn2C)nc2sc(-c3cccc(OC)c3Cl)c(-c3ccccc3)c12 [drawing 567]						6.00 to 6.12	76 to 100%	pIC50 [10]: 6.00 to 6.12; pIC50 [8]: 6.00 to 6.12
